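Step 1: Grow cells in 96-well plates. Step 2: Expose to compound for 48 hours at 5 concentrations. Step 3: Interpolate endpoints linearly; if unreached, use highest concentration. Here, GI50 denotes the concentration required for 50% inhibition of growth. The concentration for full growth arrest is given as TGI.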
What was measured:
Assay in all cases: inhibition of tumour cell growth, NCI panel, 48 h
UACC-62 melanoma = system: UACC-62 melanoma
SF-539 CNS = system: SF-539 CNS
IGROV1 ovarian = system: IGROV1 ovarian
UO-31 renal = system: UO-31 renal
786-0 renal = system: 786-0 renal
OVCAR-5 ovarian = system: OVCAR-5 ovarian
A549 NSCLC = system: A549 NSCLC
HOP-62 NSCLC = system: HOP-62 NSCLC
NCI-H23 lung = system: NCI-H23 lung
OVCAR-3 ovarian = system: OVCAR-3 ovarian
COLO 205 colon = system: COLO 205 colon
HT29 colon = system: HT29 colon
LOX IMVI melanoma = system: LOX IMVI melanoma
MCF7 breast = system: MCF7 breast
RPMI-8226 leukemia = system: RPMI-8226 leukemia
RXF 393 renal = system: RXF 393 renal
HOP-92 NSCLC = system: HOP-92 NSCLC
SNB-75 CNS = system: SNB-75 CNS
OVCAR-8 ovarian = system: OVCAR-8 ovarian
SN12C renal = system: SN12C renal
SR leukemia = system: SR leukemia
HCT-15 colon = system: HCT-15 colon
MDA-MB-468 breast = system: MDA-MB-468 breast
HS 578T breast = system: HS 578T breast
PC-3 prostate = system: PC-3 prostate
T-47D breast = system: T-47D breast
TK-10 renal = system: TK-10 renal
MALME-3M melanoma = system: MALME-3M melanoma
NCI-H522 lung = system: NCI-H522 lung
SK-MEL-2 melanoma = system: SK-MEL-2 melanoma
SF-295 CNS = system: SF-295 CNS
SNB-19 CNS = system: SNB-19 CNS
HCT-116 colon = system: HCT-116 colon
OVCAR-4 ovarian = system: OVCAR-4 ovarian
NCI-H460 lung = system: NCI-H460 lung
SK-OV-3 ovarian = system: SK-OV-3 ovarian
MOLT-4 leukemia = system: MOLT-4 leukemia
HCC-2998 colon = system: HCC-2998 colon
DU-145 prostate = system: DU-145 prostate
CAKI-1 renal = system: CAKI-1 renal
SF-268 CNS = system: SF-268 CNS
K-562 leukemia = system: K-562 leukemia
MDA-MB-231 breast = system: MDA-MB-231 breast
HL-60(TB) leukemia = system: HL-60(TB) leukemia
BT-549 breast = system: BT-549 breast
MDA-MB-435 = system: MDA-MB-435
U251 CNS = system: U251 CNS
CCRF-CEM leukemia = system: CCRF-CEM leukemia
EKVX NSCLC = system: EKVX NSCLC
UACC-257 melanoma = system: UACC-257 melanoma
SK-MEL-28 melanoma = system: SK-MEL-28 melanoma
ACHN renal = system: ACHN renal
KM12 colon = system: KM12 colon
NCI-H226 lung = system: NCI-H226 lung

Q: For `CC1=C2C(=C[C@@](C)(CO)[C@@H]2O)/C(=N\N)[C@](C)(O)C12CC2`, which GI50 (UACC-62 melanoma) is on record?
A: Its GI50 is 1740 nM.

Q: And the TGI (UACC-62 melanoma)?
A: Its TGI is 3230 nM.

Q: What about the GI50 (SF-539 CNS) of the same compound?
A: The GI50 was 1850 nM.

Q: What about the TGI (SF-539 CNS) of the same compound?
A: The TGI was 3830 nM.

Q: What about the GI50 (IGROV1 ovarian) of the same compound?
A: The GI50 was 2390 nM.

Q: What about the TGI (IGROV1 ovarian) of the same compound?
A: The TGI was 7620 nM.

Q: And the GI50 (UO-31 renal)?
A: Its GI50 is 1650 nM.

Q: What about the TGI (UO-31 renal) of the same compound?
A: The TGI was 4660 nM.

Q: And the GI50 (786-0 renal)?
A: Its GI50 is 2970 nM.

Q: What about the TGI (786-0 renal) of the same compound?
A: Its TGI is 9080 nM.

Q: And the GI50 (OVCAR-5 ovarian)?
A: Its GI50 is 518 nM.

Q: And the TGI (OVCAR-5 ovarian)?
A: Its TGI is 33800 nM.

Q: What about the GI50 (A549 NSCLC) of the same compound?
A: Its GI50 is 2390 nM.

Q: And the TGI (A549 NSCLC)?
A: Its TGI is 22800 nM.

Q: And the GI50 (HOP-62 NSCLC)?
A: The GI50 was 2230 nM.

Q: What about the TGI (HOP-62 NSCLC) of the same compound?
A: Its TGI is 5320 nM.

Q: What about the GI50 (NCI-H23 lung) of the same compound?
A: Its GI50 is 1080 nM.

Q: And the TGI (NCI-H23 lung)?
A: The TGI was 2900 nM.

Q: What about the GI50 (OVCAR-3 ovarian) of the same compound?
A: Its GI50 is 2630 nM.

Q: What about the TGI (OVCAR-3 ovarian) of the same compound?
A: Its TGI is 7050 nM.

Q: What about the GI50 (COLO 205 colon) of the same compound?
A: Its GI50 is 1650 nM.

Q: What about the TGI (COLO 205 colon) of the same compound?
A: Its TGI is 3650 nM.

Q: And the GI50 (HT29 colon)?
A: Its GI50 is 1940 nM.

Q: What about the TGI (HT29 colon) of the same compound?
A: Its TGI is 8750 nM.

Q: What about the GI50 (LOX IMVI melanoma) of the same compound?
A: Its GI50 is 1620 nM.

Q: What about the TGI (LOX IMVI melanoma) of the same compound?
A: The TGI was 4990 nM.

Q: And the GI50 (MCF7 breast)?
A: The GI50 was 405 nM.

Q: What about the TGI (MCF7 breast) of the same compound?
A: The TGI was greater than 100000 nM.

Q: What about the GI50 (RPMI-8226 leukemia) of the same compound?
A: The GI50 was greater than 100000 nM.

Q: And the TGI (RPMI-8226 leukemia)?
A: Its TGI is greater than 100000 nM.

Q: And the GI50 (RXF 393 renal)?
A: Its GI50 is 1510 nM.

Q: And the TGI (RXF 393 renal)?
A: The TGI was 3260 nM.

Q: What about the GI50 (HOP-92 NSCLC) of the same compound?
A: Its GI50 is 2540 nM.

Q: And the TGI (HOP-92 NSCLC)?
A: The TGI was 6750 nM.

Q: And the GI50 (SNB-75 CNS)?
A: The GI50 was 1360 nM.

Q: What about the TGI (SNB-75 CNS) of the same compound?
A: Its TGI is 4820 nM.

Q: And the GI50 (OVCAR-8 ovarian)?
A: The GI50 was 1860 nM.

Q: And the TGI (OVCAR-8 ovarian)?
A: The TGI was 5120 nM.

Q: And the GI50 (SN12C renal)?
A: Its GI50 is 2330 nM.

Q: And the TGI (SN12C renal)?
A: Its TGI is 6660 nM.

Q: And the GI50 (SR leukemia)?
A: Its GI50 is 2120 nM.

Q: What about the TGI (SR leukemia) of the same compound?
A: The TGI was greater than 100000 nM.

Q: And the GI50 (HCT-15 colon)?
A: The GI50 was 1540 nM.

Q: What about the TGI (HCT-15 colon) of the same compound?
A: Its TGI is greater than 100000 nM.

Q: What about the GI50 (MDA-MB-468 breast) of the same compound?
A: Its GI50 is 977 nM.

Q: And the TGI (MDA-MB-468 breast)?
A: Its TGI is 2770 nM.

Q: What about the GI50 (HS 578T breast) of the same compound?
A: Its GI50 is 2880 nM.

Q: And the TGI (HS 578T breast)?
A: The TGI was 9440 nM.

Q: And the GI50 (PC-3 prostate)?
A: Its GI50 is 2550 nM.

Q: And the TGI (PC-3 prostate)?
A: The TGI was 15300 nM.

Q: What about the GI50 (T-47D breast) of the same compound?
A: The GI50 was 2200 nM.

Q: And the TGI (T-47D breast)?
A: The TGI was 6710 nM.

Q: And the GI50 (TK-10 renal)?
A: The GI50 was 3100 nM.

Q: What about the TGI (TK-10 renal) of the same compound?
A: Its TGI is 9250 nM.

Q: What about the GI50 (MALME-3M melanoma) of the same compound?
A: The GI50 was 1700 nM.

Q: And the TGI (MALME-3M melanoma)?
A: The TGI was 3250 nM.

Q: And the GI50 (NCI-H522 lung)?
A: Its GI50 is 1190 nM.

Q: What about the TGI (NCI-H522 lung) of the same compound?
A: The TGI was 3640 nM.

Q: And the GI50 (SK-MEL-2 melanoma)?
A: The GI50 was 1770 nM.

Q: And the TGI (SK-MEL-2 melanoma)?
A: Its TGI is 3330 nM.

Q: And the GI50 (SF-295 CNS)?
A: The GI50 was 1740 nM.

Q: What about the TGI (SF-295 CNS) of the same compound?
A: The TGI was greater than 100000 nM.

Q: And the GI50 (SNB-19 CNS)?
A: Its GI50 is 2510 nM.

Q: What about the TGI (SNB-19 CNS) of the same compound?
A: The TGI was 8670 nM.

Q: What about the GI50 (HCT-116 colon) of the same compound?
A: Its GI50 is 1330 nM.

Q: And the TGI (HCT-116 colon)?
A: Its TGI is greater than 100000 nM.

Q: What about the GI50 (OVCAR-4 ovarian) of the same compound?
A: The GI50 was 2440 nM.

Q: What about the TGI (OVCAR-4 ovarian) of the same compound?
A: The TGI was 7160 nM.

Q: What about the GI50 (NCI-H460 lung) of the same compound?
A: The GI50 was 420 nM.

Q: And the TGI (NCI-H460 lung)?
A: The TGI was 6630 nM.

Q: What about the GI50 (SK-OV-3 ovarian) of the same compound?
A: The GI50 was 2910 nM.

Q: What about the TGI (SK-OV-3 ovarian) of the same compound?
A: The TGI was 7870 nM.

Q: And the GI50 (MOLT-4 leukemia)?
A: Its GI50 is 2400 nM.

Q: What about the TGI (MOLT-4 leukemia) of the same compound?
A: The TGI was greater than 100000 nM.

Q: And the GI50 (HCC-2998 colon)?
A: Its GI50 is 1790 nM.

Q: And the TGI (HCC-2998 colon)?
A: Its TGI is 3770 nM.

Q: What about the GI50 (DU-145 prostate) of the same compound?
A: Its GI50 is 812 nM.

Q: What about the TGI (DU-145 prostate) of the same compound?
A: The TGI was 30500 nM.

Q: What about the GI50 (CAKI-1 renal) of the same compound?
A: The GI50 was 2440 nM.

Q: What about the TGI (CAKI-1 renal) of the same compound?
A: Its TGI is greater than 100000 nM.

Q: What about the GI50 (SF-268 CNS) of the same compound?
A: The GI50 was 2660 nM.

Q: And the TGI (SF-268 CNS)?
A: The TGI was 21800 nM.

Q: And the GI50 (K-562 leukemia)?
A: Its GI50 is 2020 nM.

Q: And the TGI (K-562 leukemia)?
A: Its TGI is greater than 100000 nM.

Q: And the GI50 (MDA-MB-231 breast)?
A: Its GI50 is 2250 nM.

Q: And the TGI (MDA-MB-231 breast)?
A: The TGI was 6520 nM.

Q: What about the GI50 (HL-60(TB) leukemia) of the same compound?
A: The GI50 was 1440 nM.

Q: What about the TGI (HL-60(TB) leukemia) of the same compound?
A: The TGI was 8870 nM.

Q: What about the GI50 (BT-549 breast) of the same compound?
A: The GI50 was 1690 nM.

Q: What about the TGI (BT-549 breast) of the same compound?
A: The TGI was 4430 nM.

Q: And the GI50 (MDA-MB-435)?
A: The GI50 was 2230 nM.

Q: And the TGI (MDA-MB-435)?
A: Its TGI is 5580 nM.

Q: What about the GI50 (U251 CNS) of the same compound?
A: Its GI50 is 416 nM.

Q: What about the TGI (U251 CNS) of the same compound?
A: The TGI was greater than 100000 nM.

Q: And the GI50 (CCRF-CEM leukemia)?
A: The GI50 was 2930 nM.

Q: What about the TGI (CCRF-CEM leukemia) of the same compound?
A: The TGI was greater than 100000 nM.

Q: What about the GI50 (EKVX NSCLC) of the same compound?
A: Its GI50 is 2170 nM.

Q: What about the TGI (EKVX NSCLC) of the same compound?
A: The TGI was 5520 nM.

Q: What about the GI50 (UACC-257 melanoma) of the same compound?
A: Its GI50 is 2250 nM.

Q: And the TGI (UACC-257 melanoma)?
A: The TGI was 5190 nM.

Q: What about the GI50 (SK-MEL-28 melanoma) of the same compound?
A: The GI50 was 2040 nM.

Q: What about the TGI (SK-MEL-28 melanoma) of the same compound?
A: Its TGI is 4110 nM.

Q: And the GI50 (ACHN renal)?
A: The GI50 was 860 nM.

Q: And the TGI (ACHN renal)?
A: The TGI was 5180 nM.

Q: What about the GI50 (KM12 colon) of the same compound?
A: Its GI50 is 2980 nM.

Q: What about the TGI (KM12 colon) of the same compound?
A: Its TGI is greater than 100000 nM.

Q: What about the GI50 (NCI-H226 lung) of the same compound?
A: The GI50 was 2110 nM.

Q: What about the TGI (NCI-H226 lung) of the same compound?
A: Its TGI is 7440 nM.

Source: PubChem BioAssay (NCI)
